# Assay results as given in PubChem BioAssay (NCI).
#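 Five compound concentrations were applied to cells in 96-well plates for 48 hours; endpoints were derived by simple linear interpolation of the resulting dose-response curve. GI50: concentration for 50% inhibition of growth. TGI: total growth inhibition.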
# Experiments:
# Assay in all cases: NCI tumour cell line growth inhibition, 48 h
# [1] = system: SK-MEL-28 melanoma
# [2] = system: MDA-MB-231 breast
# [3] = system: 786-0 renal
# [4] = system: MDA-MB-468 breast
# [5] = system: K-562 leukemia
# [6] = system: HCT-116 colon
# [7] = system: T-47D breast
# [8] = system: TK-10 renal
# [9] = system: SW-620 colon
# [10] = system: U251 CNS
# [11] = system: OVCAR-5 ovarian
# [12] = system: SK-MEL-2 melanoma
# [13] = system: RXF 393 renal
# [14] = system: HOP-62 NSCLC
# [15] = system: HL-60(TB) leukemia
# [16] = system: HCT-15 colon
# [17] = system: LOX IMVI melanoma
# [18] = system: OVCAR-3 ovarian
# [19] = system: HOP-92 NSCLC
# [20] = system: ACHN renal
# [21] = system: BT-549 breast
# [22] = system: UACC-257 melanoma
# [23] = system: HS 578T breast
# [24] = system: OVCAR-4 ovarian
# [25] = system: OVCAR-8 ovarian
# [26] = system: IGROV1 ovarian
# [27] = system: M14 melanoma
# [28] = system: NCI-H23 lung
# [29] = system: CAKI-1 renal
# [30] = system: A498 renal
# [31] = system: SF-539 CNS
# [32] = system: COLO 205 colon
# [33] = system: NCI-H226 lung
# [34] = system: KM12 colon
# [35] = system: HCC-2998 colon
# [36] = system: A549 NSCLC
# [37] = system: UO-31 renal
# [38] = system: SNB-75 CNS
# [39] = system: SK-OV-3 ovarian
# [40] = system: SK-MEL-5 melanoma
# [41] = system: EKVX NSCLC
# [42] = system: HT29 colon
# [43] = system: DU-145 prostate
# [44] = system: SNB-19 CNS
# [45] = system: MDA-MB-435
# [46] = system: MCF7 breast
# [47] = system: SF-295 CNS
# [48] = system: RPMI-8226 leukemia
# [49] = system: NCI/ADR-RES ovarian
# [50] = system: PC-3 prostate
# [51] = system: NCI-H460 lung
# [52] = system: SN12C renal
# [53] = system: CCRF-CEM leukemia
# [54] = system: UACC-62 melanoma
# [55] = system: MALME-3M melanoma
# [56] = system: NCI-H522 lung
# [57] = system: MOLT-4 leukemia
# [58] = system: SR leukemia
# [59] = system: SF-268 CNS
smiles,measurement,setting,value
Cc1ccc2c(c1)/C(=C/C(=O)c1cc3ccccc3oc1=O)C(=O)N2,GI50,[1],17 µM
same,TGI,[1],30.6 µM
same,GI50,[2],15 µM
same,TGI,[2],28.2 µM
same,GI50,[3],18.5 µM
same,TGI,[3],32.4 µM
same,GI50,[4],10.5 µM
same,TGI,[4],23.9 µM
same,GI50,[5],3.91 µM
same,TGI,[5],48.7 µM
same,GI50,[6],4.45 µM
same,TGI,[6],16.8 µM
same,GI50,[7],13 µM
same,TGI,[7],34.5 µM
same,GI50,[8],20 µM
same,TGI,[8],34.7 µM
same,GI50,[9],14.7 µM
same,TGI,[9],30.4 µM
same,GI50,[10],29.2 µM
same,TGI,[10],> 100 µM
same,GI50,[11],16.7 µM
same,TGI,[11],30.3 µM
same,GI50,[12],21.1 µM
same,TGI,[12],54.7 µM
same,GI50,[13],15.8 µM
same,TGI,[13],29.3 µM
same,GI50,[14],> 100 µM
same,TGI,[14],> 100 µM
same,GI50,[15],4.32 µM
same,TGI,[15],23.1 µM
same,GI50,[16],16.7 µM
same,TGI,[16],32.8 µM
same,GI50,[17],14.7 µM
same,TGI,[17],27.9 µM
same,GI50,[18],14.1 µM
same,TGI,[18],27.3 µM
same,GI50,[19],14.5 µM
same,TGI,[19],28.4 µM
same,GI50,[20],9.6 µM
same,TGI,[20],21.3 µM
same,GI50,[21],17.6 µM
same,TGI,[21],33.7 µM
same,GI50,[22],15.7 µM
same,TGI,[22],29.6 µM
same,GI50,[23],19.4 µM
same,TGI,[23],84.6 µM
same,GI50,[24],17.4 µM
same,TGI,[24],33.3 µM
same,GI50,[25],17.9 µM
same,TGI,[25],34 µM
same,GI50,[26],16.2 µM
same,TGI,[26],29.9 µM
same,GI50,[27],15.9 µM
same,TGI,[27],29.8 µM
same,GI50,[28],16.4 µM
same,TGI,[28],32.8 µM
same,GI50,[29],12.2 µM
same,TGI,[29],25.3 µM
same,GI50,[30],> 100 µM
same,TGI,[30],> 100 µM
same,GI50,[31],16.2 µM
same,TGI,[31],29.7 µM
same,GI50,[32],17.2 µM
same,TGI,[32],32.4 µM
same,GI50,[33],18.6 µM
same,TGI,[33],46.8 µM
same,GI50,[34],> 100 µM
same,TGI,[34],> 100 µM
same,GI50,[35],17.7 µM
same,TGI,[35],32.8 µM
same,GI50,[36],34.5 µM
same,TGI,[36],> 100 µM
same,GI50,[37],11.3 µM
same,TGI,[37],23.4 µM
same,GI50,[38],82.1 µM
same,TGI,[38],> 100 µM
same,GI50,[39],> 100 µM
same,TGI,[39],> 100 µM
same,GI50,[40],24.9 µM
same,TGI,[40],80.2 µM
same,GI50,[41],16.2 µM
same,TGI,[41],29.9 µM
same,GI50,[42],20.6 µM
same,TGI,[42],40.5 µM
same,GI50,[43],17.9 µM
same,TGI,[43],32.4 µM
same,GI50,[44],> 100 µM
same,TGI,[44],> 100 µM
same,GI50,[45],17.6 µM
same,TGI,[45],33 µM
same,GI50,[46],16.4 µM
same,TGI,[46],34 µM
same,GI50,[47],> 100 µM
same,TGI,[47],> 100 µM
same,GI50,[48],22.1 µM
same,TGI,[48],63.9 µM
same,GI50,[49],17.3 µM
same,TGI,[49],34.4 µM
same,GI50,[50],16.1 µM
same,TGI,[50],36 µM
same,GI50,[51],> 100 µM
same,TGI,[51],> 100 µM
same,GI50,[52],16.9 µM
same,TGI,[52],31.9 µM
same,GI50,[53],6.91 µM
same,TGI,[53],56.5 µM
same,GI50,[54],15.5 µM
same,TGI,[54],33 µM
same,GI50,[55],10.6 µM
same,TGI,[55],22.5 µM
same,GI50,[56],3.26 µM
same,TGI,[56],11.5 µM
same,GI50,[57],8.56 µM
same,TGI,[57],43.2 µM
same,GI50,[58],7.24 µM
same,TGI,[58],74.7 µM
same,GI50,[59],68.3 µM
same,TGI,[59],> 100 µM
